Results published in patent US11220486B2 (La Jolla Institute of Allergy & Immunology, priority 2014, dated 2022).
Like-named read-outs stand apart in the source and are kept apart here.

Columns and labels:
[1] = target: LMPTP-A (Low Molecular Weight Protein Tyrosine Phosphatase-A) enzyme (Homo sapiens (Human), UniProt P24666); test: LMPTP primary screening / LMPTP (OMFP) enzyme inhibition assay, fluorescence intensity; format: biochemical
Description: This assay attempts to identify inhibitors of the LMPTP-A (Low Molecular Weight Protein Tyrosine Phosphatase-A) enzyme. It is run in 1536-well format and is measured via fluorescence intensity.
A listing of materials is provided: • Item, source, catalog no. • LMPTP-A Enzyme Stock Solution (4.22 mg/ml or 206.8 μM), SBMRI Protein Facility, • N/A • OMFP, Sigma, M2629-100 MG • Bis-Tris pH 6.0, Fisher Sci, BP301-100 • Triton-X 100, Sigma, T9284 • DTT, Sigma, D9779 • Mol. Grade Water, Mediatech, Inc., 46-000-CM • 1536-well black High base opaque bottom plate, Nexus Biosystems, 00019120
Assay Procedure • 1. Prepare Reagents as described in section F. Recipe. • 2. Using LabCyte Echo, transfer 60 nL from 2 mM test compound source plate into assay plate Col. 5-48 (final concentration of test compounds is 20 μM). 60 nL of DMSO should be transferred to col. 1-4 for positive and negative control wells. • 3. Spin plates at 1000 rpm for 1 minute in centrifuge. • 4. […] Using the Bioraptr, add 3 μL/well of enzyme solution to col. 3-48. • 6. Using the Bioraptr, add 3 μL/well of substrate solution to col. 1-48. • 7. Spin plates at 1000 rpm for 1 minute in centrifuge. • 8. Incubate plates in the dark at room temperature for 50 minutes. • 9. Read plates on PerkinElmer Viewlux using a FI protocol.

[2] = Hepatic microsomal stability, mouse; format: in vitro ADME
Description: The microsomal stability assay is commonly used to rank compounds according to their metabolic stability. This assay addresses the pharmacologic question of how long the parent compound will remain circulating in plasma within the body.

[3] = tested on: insulin receptor in human HepG2 hepatocytes; settings: HepG2 cells, 10 microM overnight, 1.76 microM insulin 5 min
3T3-L1 pre-adipocytes = test: Insulin-based 3T3-L1 adipogenesis assay (AdipoRed); format: cell-based, mouse; settings: 10 μM
Description: The probe Compound D1 was also profiled in an insulin-based mouse 3T3-L1 adipogenesis assay. In this assay, 3T3-L1 pre-adipocytes are grown to 2-days post-confluence in DMEM with 10% bovine calf serum, and then induced to differentiate to adipocytes following stimulation for 2 days with an induction cocktail containing […] insulin, 1 μM dexamethasone, and 0.5 mM 3-isobutyl-1-methylxanthine in DMEM containing 10% fetal bovine serum (FBS).^44 2 days later, the media is replaced with DMEM with 10% FBS and 1 μg/ml insulin, and after 2 additional days, the media is replaced with DMEM with 10% FBS for 2 additional days, at which point adipogenesis is measured using the AdipoRed Adipogenesis Assay Reagent from Lonza, according to the manufacturer's instructions. In brief, the assay reagent is added to the wells containing cells, where it partitions into the fat droplets of differentiated adipocytes, and emits fluorescence at 572 nm that can be detected with a plate-reader. To test the effect of probe Compound D1, cells were plated into 48-well plates and allowed to grow to confluence. Cells were then treated with 10 μM Compound D1 or 0.025% DMSO, and after 2 days induced to differentiate in the presence of 10 μM Compound D1 or 0.025% DMSO. Fresh compound or DMSO was added during each media replacement.

[4] = Aqueous solubility in buffer pH 5.0-7.4 and PBS; format: physicochemical
[5] = Rodent pharmacokinetics (IV, PO, IP); format: in vivo, Male C57BL/6 Mice; settings: mouse
Description: The inventors also examined ML400 (also described herein as MLS-0472870 or Compound D1) for its rodent pharmacokinetics. The probe Compound D1 was profiled in Male C57BL/6 Mice, with n=3 for each group studied (IV, IP and PO arms). The formulation used was 1.00 mg/mL in DMSO:Tween80:Water=5:5:90, which gave a clear solution. […] Enterohepatic circulation was also observed for this compound. This compound has acceptable parameters for future in vivo studies (see Table 4 and FIG. 13).

[6] = tested on: obese mice (glucose tolerance); test: IPGTT in high-fat-diet obese mice; format: in vivo, Male C57BL/6 mice; settings: 30 mg/kg daily IP, 4 weeks, HFD obese mice, 2 g glucose/kg
Description: Male C57BL/6 mice were maintained on HFD containing 60 kcal % fat for 3 months, followed by daily IP administration of 30 mg/kg Compound D1 or vehicle. After 4 weeks, IPGTT were performed using 2 g glucose/kg body weight. Mean±SEM is shown. *, p<0.05, Two-way ANOVA.

[7] = Kidney function: serum creatinine of treated mice; format: in vivo; settings: mice treated 30 mg/kg daily IP
Description: Serum creatinine levels from mice treated with Compound D1 (ML400) or vehicle (mice shown in FIG. 9) were assessed using the QuantiChrom Creatinine Assay Kit from BioAssay Systems.

[8] = Liver function: serum alanine transaminase or aspartate transaminase of treated mice; format: in vivo; settings: mice treated 30 mg/kg daily IP
Description: Serum alanine transaminase or aspartate transaminase levels from mice treated with Compound D1 (ML400) or vehicle (mice shown in FIG. 10) were assessed using EnzyChrom Assay Kits from BioAssay Systems.

Chain of LMPTP-A (Low Molecular Weight Protein Tyrosine Phosphatase-A) enzyme (P24666 whole entry): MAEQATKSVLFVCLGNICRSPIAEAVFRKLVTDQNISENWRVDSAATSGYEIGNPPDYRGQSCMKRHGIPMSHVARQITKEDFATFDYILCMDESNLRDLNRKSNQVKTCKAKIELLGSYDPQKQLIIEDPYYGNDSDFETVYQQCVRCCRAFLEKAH

## CN(C)Cc1cccc(Nc2cc(-c3ccc(Cl)cc3F)nc3ccccc23)c1 [Compound I9, [(3-{[2-(4-chloro-2-fluorophenyl)(4-quinolyl)]amino}phenyl)methyl]dimethylamine]
[1]; read-out: IC50
  IC50: 801 to 5000 nM

## c1ccc(-c2cc(NCCN3CCCCC3)c3ccccc3n2)cc1 [Entry 41]
[2]
  Hepatic Microsome Stability % Remaining @ 1 hr: 0.38%
[3]
  phosphorylation of the insulin receptor: increases phosphorylation of the insulin receptor

## CSCCCN1CCCCC1 [Entry 64]
[1]; S sample: compound synthesized de novo by SBCCG, read-out: LMPTP (OMFP) (IC50)
  IC50: 66900 nM

## CCN(CC)CCNC(=O)c1ccc(-c2cc(NCCCN3CCCCC3)c3ccccc3n2)cc1 [Compound I254]
[1]; read-out: IC50
  IC50: 200 to 800 nM

## COc1ccc(-c2cc(NCCCN3CCCCC3)c3ccccc3n2)cc1 [Compound D1, 2-(4-methoxyphenyl)-N-(3-(piperidin-1-yl)propyl)quinolin-4-amine]
3T3-L1 pre-adipocytes
  3T3-L1 adipogenesis: completely abolished
[4]; PBS, compared with aqueous buffer
  solubility in PBS: comparable
[4]; pH range of 5.0-7.4
  concentration achieved in aqueous buffer relative to IC50: 18-20 ×IC50
[5]
  Enterohepatic circulation: observed
[6]
  glucose tolerance (IPGTT): Improves Glucose Tolerance
[7]
  kidney function (serum creatinine): does not Affect Kidney Function
[8]
  liver function (serum alanine transaminase or aspartate transaminase): does not Affect Liver Function

## CNC(=O)c1ccc(-c2cc(NCCCN3CCCCC3)c3ccccc3n2)cc1F [Compound I228]
[1]; read-out: IC50
  IC50: 801 to 5000 nM
